Earlier results, collected in US20170298446A1, “BIOMARKERS OF BRUTON TYROSINE KINASE INHIBITOR RESISTANCE” (OHIO STATE INNOVATION FOUNDATION, priority 2014, published 2017).

Target: BTK (Homo sapiens, UniProt Q06187)
Sequence (Q06187 whole entry): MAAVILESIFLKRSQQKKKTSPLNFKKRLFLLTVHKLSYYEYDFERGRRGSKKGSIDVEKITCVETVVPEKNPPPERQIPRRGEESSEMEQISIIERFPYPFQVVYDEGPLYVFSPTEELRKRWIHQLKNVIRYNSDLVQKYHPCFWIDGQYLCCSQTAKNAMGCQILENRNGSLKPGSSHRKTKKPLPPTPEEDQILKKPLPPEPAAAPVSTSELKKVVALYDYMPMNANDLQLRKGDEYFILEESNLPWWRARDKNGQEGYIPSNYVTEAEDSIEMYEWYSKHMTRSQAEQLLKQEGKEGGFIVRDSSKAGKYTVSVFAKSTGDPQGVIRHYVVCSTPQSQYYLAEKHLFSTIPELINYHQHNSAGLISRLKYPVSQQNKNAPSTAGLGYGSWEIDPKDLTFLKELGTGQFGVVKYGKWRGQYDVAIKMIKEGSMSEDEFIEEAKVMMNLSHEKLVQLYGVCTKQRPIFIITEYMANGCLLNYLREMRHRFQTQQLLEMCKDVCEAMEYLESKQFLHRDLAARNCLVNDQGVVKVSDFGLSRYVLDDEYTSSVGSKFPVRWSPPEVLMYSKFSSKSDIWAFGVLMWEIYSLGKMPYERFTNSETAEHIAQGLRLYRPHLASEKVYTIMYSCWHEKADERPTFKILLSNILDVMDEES

In the case of `CC(C)(C)c1ccc(C(=O)Nc2cccc(-c3cn4ccnc4c(Nc4ccccc4)n3)c2)cc1` [CGI-560, 4-(tert-butyl)-N-(3-(8-(phenylamino)imidazo[1,2-a]pyrazin-6-yl)phenyl)benzamide], the “selectivity for BTK” value is given as > 10 fold.
